Test results: patent US20250368629A1, “FLAVONOID COMPOUNDS AND METHODS AND MATERIALS FOR USING FLAVONOID COMPOUNDS TO TREAT FIBROTIC CONDITIONS” (Mayo Foundation for Medical Education and Research, priority 2022, published 2025)

Columns and labels:
[1] = in vitro; type: in vitro ADME; conditions: rat
Description: Plasma protein binding assays were also performed (Table 2). Compounds were incubated with rat plasma for 4 hours. The percent of F-4N recovered was analyzed by LC-MS. Warfarin was used as a control for a compound with high plasma protein binding. Analysis performed by Cyprotex (Framingham, MA).

[2] = Stability in mouse plasma; type: in vitro ADME
Description: The stability of F-4N in plasma was assessed (FIG. 27). Compounds were incubated with human or mouse plasma. The percent of F-4N recovered was analyzed by LC-MS. Warfarin was used as a control for stable compound, and propantheline was used as a control for an unstable compound. Analysis was performed by Cyprotex (Framingham, MA).

[3] = molecular target: T1, DRAK1 (Homo sapiens, UniProt Q9UEE5); assay: DRAK1 kinase activity assay (radiolabeled ATP, Reaction Biology); type: biochemical; conditions: FIG. 30
T1 construct: purchased Reaction Biology
T1 sequence (Q9UEE5 1-414): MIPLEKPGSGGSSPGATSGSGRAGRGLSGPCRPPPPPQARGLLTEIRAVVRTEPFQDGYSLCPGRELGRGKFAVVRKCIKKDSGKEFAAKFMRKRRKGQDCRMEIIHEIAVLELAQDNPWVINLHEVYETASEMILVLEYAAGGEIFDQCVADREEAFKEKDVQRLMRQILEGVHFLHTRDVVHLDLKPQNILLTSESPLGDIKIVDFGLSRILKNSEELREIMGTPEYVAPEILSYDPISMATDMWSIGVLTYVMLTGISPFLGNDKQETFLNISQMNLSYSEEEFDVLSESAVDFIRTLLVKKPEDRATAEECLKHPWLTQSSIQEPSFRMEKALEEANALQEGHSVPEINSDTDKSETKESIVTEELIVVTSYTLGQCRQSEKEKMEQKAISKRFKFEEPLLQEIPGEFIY
Description: DRAK1 kinase activity was also assessed. […] A DRAK1 kinase activity was performed by Reaction Biology. DRAK1 kinase activity was measured and plotted (FIG. 30).

[4] = tested on: Mdr2-/- mice; assay: Mdr2-/- mouse model of PSC with established liver fibrosis, oral treatment; type: in vivo; conditions: 4 weeks
Description: 20 Mdr2^−/− mice (10 males, 10 females) approximately 7 months old with established liver fibrosis were assigned to receive either F-4N or vehicle ([…]) for 4 weeks. At the end of treatment, mice were sacrificed, and livers were collected to assess liver inflammation and fibrosis.

[5] = tested on: Human adult lung fibroblasts (passage 3); assay: Fibroblast activation (TGFβ, alpha-smooth muscle actin); type: cell-based; conditions: Homo sapiens, Fibroblast; +2 ng/mL TGFβ, 96 hours, alpha-smooth muscle actin intensity
Description: Human adult lung fibroblasts (passage 3) were plated into 96-well plates and treated with the indicated compound (6-point dose-response) +2 ng/mL TGFβ to stimulated fibroblast activation. Cells were incubated for 96 hours, fixed using 4% PFA, permeabilized using 0.25% triton x-100, and stained using a primary antibody recognizing alpha-smooth muscle actin and a secondary fluorescent conjugated antibody, and DAPI. Cells were then imaged using a 4× objective on a Cytation5 microscope and alpha-smooth muscle actin intensity was quantified using automated software (Biotek Gen5). Data shown are the IC50 values for each compounds efficacy at reducing expression of alpha-smooth muscle actin, calculated from the calculated dose-response curves, N=3 independent.

O=c1c(O)c(-c2ccc(OCc3ccncc3)cc2)oc2ccccc12 [F—4N]
recovery at 4 h, 5 μM [1]: 100% | Plasma bound ([1]; 4 h, 5 μM): 99% | plasma protein binding (in words) ([1]; plasma): high | Plasma unbound ([1]; plasma, 4 h, 5 μM): 0.94% | stability in plasma (percent recovered, LC-MS) [2]: stable | DRAK1 kinase activity [3]: can inhibit | expression of fibrogenic genes in the liver ([4]; oral delivery): reduced expression | liver fibrosis, especially parenchymal (bridging) fibrosis ([4]; oral delivery): Improvement of liver fibrosis | tissue markers of liver inflammation and senescence ([4]; oral delivery): Significant reduction | liver mass ([4]; oral treatment): reduced | EC50 [5]: 1800 nM
